From article PMC12564449, “Multifaceted Biological Activity of Selected Flavone C-Monoglucosides” (International Journal of Molecular Sciences, 2025)
Where a name gives a salt, the structure may show the parent alone. Read-outs that look alike come from different tables or passages of the source. Marks after values point to notes of the source that are not given here.

Tests used:
[1] = vs. NHE; cited from earlier work
[2] = test system: advanced glycation end-products (AGEs) formation in BSA/glucose model system; assay: Inhibition of AGEs formation, BSA/glucose model system; format: biochemical, bovine; details: for IC50: read-out: IC50 against AGEs formation, BSA-Glucose System
Method: (§1) The inhibitory activity against AGEs formation was performed in the bovine serum albumin (BSA)/glucose and BSA/methylglyoxal (MGO) model systems as described recently by Zielińska et al.. Standards of OR, hOR, VT, iVT, and Q were initially dissolved in a small volume of DMSO and then in phosphate buffer (0.1 M, pH 7.4) to obtain 1 mM (DMSO/phosphate buffer; 1:5; v/v). The positive control aminoguanidine (1 mM AG) was used. The percentage (%) of inhibition was obtained from three repetitions (n = 3). The IC50, indicating the concentration of the compound at which formation of AGEs is inhibited by 50%, was determined through linear regression analysis.

[3] = Differential pulse voltammetry: anodic peak potentials and antioxidant activity; format: physicochemical; details: DPV; for Anodic Peak Potential Epa (mV) Epa1: glassy carbon electrode; for Antioxidant Activity (mM Trolox): area under anodic peaks, Trolox regression; for antioxidant activity lower in relation to the antioxidant activity of Q: relative to quercetin
Method: Electrochemical measurements were performed at room temperature (25 ± 2 °C) in a small-volume electrochemical cell using a potentiostat type SP-240 (BioLogic Science Instruments, Seyssinet-Pariset, France) controlled by EC-Lab V11.36 software. Differential pulse voltammograms were obtained with a pulse amplitude of 100 mV, a potential step of 5 mV, and a modulation time of 0.2 s. Four scans were registered for each sample, and the reported data correspond to the average of at least three replicates. The working electrode was a glassy carbon electrode, GCE (3 mm diameter, BASi M-2012, and the auxiliary and reference electrodes were platinum wire (BASi MW-1033) and Ag/AgCl (3 M KCl, BASi-MW-2052). All potentials are quoted against the used reference electrode. Before each scan, the surface of the glassy carbon electrode was polished on a polishing cloth with 0.05 μm alumina paste and ultrasonically rinsed in deionized water. After polishing, the electrode was washed with ultrapure water and dried with absorbent paper. DPV measurements were carried out in a standard solution of flavone C-monoglucosides and quercetin at a final concentration of 250 μM. Before measurements, the standard solutions were diluted in 0.2 M acetate-acetic buffer (in 80% methanol) at pH 5.0 (v/v: 1:1). Buffer solution also served as a supporting electrolyte. For the test purpose, from registered DPV voltammograms, the anodic oxidation potentials (Epa) in mV and the integrated area under anodic peaks in μA were determined.

[4] = target: T1, angiotensin-converting enzymes (ACE) from porcine kidneys (Sus scrofa, UniProt F1RRW5); assay: Angiotensin-I-converting enzyme inhibitory activity (fluorometric); format: biochemical
T1 construct: angiotensin-converting enzymes (ACE) from porcine kidneys (EC 3.4.15.1); purchased Sigma (Sigma Chemical Company, Saint Louis, MO, USA); host or cells: porcine kidney
T1 sequence (F1RRW5 34-1309): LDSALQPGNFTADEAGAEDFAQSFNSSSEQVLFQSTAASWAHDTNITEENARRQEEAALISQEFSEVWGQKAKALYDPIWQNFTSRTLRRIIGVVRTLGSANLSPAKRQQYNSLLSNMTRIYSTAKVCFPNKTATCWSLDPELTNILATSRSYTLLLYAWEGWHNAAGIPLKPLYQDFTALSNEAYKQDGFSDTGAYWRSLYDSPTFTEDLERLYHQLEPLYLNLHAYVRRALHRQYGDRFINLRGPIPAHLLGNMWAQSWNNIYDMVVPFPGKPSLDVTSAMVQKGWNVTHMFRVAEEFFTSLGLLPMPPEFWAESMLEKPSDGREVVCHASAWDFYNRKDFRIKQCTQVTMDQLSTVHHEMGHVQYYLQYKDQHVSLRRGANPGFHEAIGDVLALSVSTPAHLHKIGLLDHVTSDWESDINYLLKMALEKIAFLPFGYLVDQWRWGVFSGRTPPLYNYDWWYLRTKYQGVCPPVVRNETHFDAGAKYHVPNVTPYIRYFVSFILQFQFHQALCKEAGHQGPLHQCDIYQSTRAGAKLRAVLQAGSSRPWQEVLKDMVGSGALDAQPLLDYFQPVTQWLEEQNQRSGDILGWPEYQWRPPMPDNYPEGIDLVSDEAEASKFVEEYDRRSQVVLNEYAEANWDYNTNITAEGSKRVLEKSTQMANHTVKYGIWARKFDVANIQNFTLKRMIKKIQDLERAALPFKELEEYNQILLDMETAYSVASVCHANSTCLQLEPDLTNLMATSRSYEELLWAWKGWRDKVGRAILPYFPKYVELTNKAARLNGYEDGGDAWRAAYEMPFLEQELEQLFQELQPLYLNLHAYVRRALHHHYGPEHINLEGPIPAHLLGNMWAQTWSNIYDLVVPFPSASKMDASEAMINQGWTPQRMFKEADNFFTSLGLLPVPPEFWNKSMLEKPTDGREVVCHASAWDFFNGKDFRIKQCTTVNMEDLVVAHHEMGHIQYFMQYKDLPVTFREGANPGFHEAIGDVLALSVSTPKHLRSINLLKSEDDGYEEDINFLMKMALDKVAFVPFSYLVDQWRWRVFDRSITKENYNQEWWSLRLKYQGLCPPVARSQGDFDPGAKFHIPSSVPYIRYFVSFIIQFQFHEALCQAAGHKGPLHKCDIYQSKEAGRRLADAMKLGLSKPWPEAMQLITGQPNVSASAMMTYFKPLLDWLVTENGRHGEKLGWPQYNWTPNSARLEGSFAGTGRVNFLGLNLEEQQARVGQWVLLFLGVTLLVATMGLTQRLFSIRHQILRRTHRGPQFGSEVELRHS
Method: Angiotensin converting enzyme (ACE) inhibitory activity was performed according to the method of Sentandreu and Toldra. The details of the procedure were described recently by Zielińska et al.. Standards of OR (luteolin-8-C-glucoside), hOR (luteolin-6-C-glucoside), VT (apigenin-8-C-glucoside), iVT (apigenin-6-C-glucoside), and Q (quercetin) were dissolved in 80% methanol. Each standard was diluted to various concentrations using deionized water. The multiscan microplate fluorometer (Tecan Infinite M1000 PRO, TK Biotech, Warsaw, Poland) was used, and the IC50 value indicating the sample concentration at which 50% inhibition of ACE activity was determined by using linear regression analysis of logarithmic plots. At least 3 replicates for each standard solution were conducted.

[5] = test system: advanced glycation end-products (AGEs) formation in BSA/methylglyoxal (MGO) model system; assay: Inhibition of AGEs formation, BSA/MGO model system; format: biochemical, bovine; details: for IC50: read-out: IC50 against AGEs formation, BSA-MGO System; for anti-AGEs activity higher in relation to AG: relative to AG
Method: as §1

[6] = target: T2, acetylcholinesterase (AChE) (Homo sapiens, UniProt P22303); assay: Acetylcholinesterase inhibitory activity; format: biochemical; details: for AChE inhibitory activity, times lower than that of galanthamine: relative to galanthamine
T2 construct: purchased Sigma Chemical Co. (Poznań, Poland)
T2 sequence (P22303 32-614, species assumed): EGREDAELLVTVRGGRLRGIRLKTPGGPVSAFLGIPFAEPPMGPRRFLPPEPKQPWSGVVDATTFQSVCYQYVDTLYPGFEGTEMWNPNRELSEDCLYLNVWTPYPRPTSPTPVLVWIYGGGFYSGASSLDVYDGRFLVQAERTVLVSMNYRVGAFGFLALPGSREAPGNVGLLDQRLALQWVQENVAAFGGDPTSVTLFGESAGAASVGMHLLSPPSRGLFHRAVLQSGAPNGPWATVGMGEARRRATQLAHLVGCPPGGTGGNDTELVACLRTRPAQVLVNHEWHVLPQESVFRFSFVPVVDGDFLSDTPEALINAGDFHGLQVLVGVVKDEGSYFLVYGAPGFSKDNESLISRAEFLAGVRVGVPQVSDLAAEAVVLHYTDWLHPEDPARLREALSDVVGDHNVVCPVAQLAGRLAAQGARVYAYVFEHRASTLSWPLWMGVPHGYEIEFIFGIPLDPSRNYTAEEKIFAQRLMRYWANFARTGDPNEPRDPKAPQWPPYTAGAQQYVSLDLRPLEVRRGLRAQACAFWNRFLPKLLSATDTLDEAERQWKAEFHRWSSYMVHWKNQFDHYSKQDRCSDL
Method: The AChE inhibitory activity was evaluated following the methodology adapted from Eldeen et al., and details of the procedure were provided recently by Zielińska et al.. […] All measurements were conducted using a microplate reader (Tecan Infinite M1000 PRO, TK Biotech, Warsaw, Poland). […] At least 3 replicates for each standard solution were carried out.

[7] = 0.25 mM standard solutions, acetate-acetic buffer pH 5.0 in 80% methanol, vs. Ag/AgCl
[8] = ACE from porcine kidneys, linear regression, read-out: IC50 for ACE inhibition

## N[C@@H](CCC(=O)N[C@@H](CS)C(=O)NCC(=O)O)C(=O)O [Glutathione (GSH), Glutathione]
[1]
  standard redox potential: around −0.23 V

## O=c1cc(-c2ccc(O)cc2)oc2c([C@@H]3O[C@H](CO)[C@@H](O)[C@H](O)[C@H]3O)c(O)cc(O)c12 [Vitexin (VT), 4′,5,7-trihydroxyflavone-8-glucoside]
[2]
  IC50: 255 ± 16 µM
[3]; [7]
  Anodic Peak Potential Epa (mV) Epa1: 925 ± 8 ^a mV
[3]; 0.25 mM standard solutions, acetate-acetic buffer pH 5.0 in 80% methanol, vs. Ag/AgCl, listed as VT
  Anodic Peak Potential Epa (mV) Epa1: 925 mV
[3]
  Antioxidant Activity (mM Trolox): 0.93 ± 0.07 ^c mM Trolox
[4]; [8]
  IC50: 135 ± 2.45 µM
[4]; relative to iVT
  ACE inhibitory activity higher in comparison to iVT: 19.6%
[5]
  IC50: 437 ± 17 µM
  anti-AGEs activity higher in relation to AG: 18%
[6]
  IC50: 1.28 ± 0.089 µM

## N=C(N)NN [Aminoquanidine (AG), aminoguanidine hydrochloride, reference compound]
[2]
  IC50: 432 ± 36 µM
[5]
  IC50: 531 ± 28 µM

## O=c1cc(-c2ccc(O)c(O)c2)oc2cc(O)c([C@@H]3O[C@H](CO)[C@@H](O)[C@H](O)[C@H]3O)c(O)c12 [Homoorientin (hOR), 3′,4′,5,7-tetrahydroxyflavone-6-glucoside]
[2]
  IC50: 14 ± 8 µM
[2]; relative to Q
  anti-AGEs activity times higher in relation to Q: ~17 times
[2]; relative to VT
  anti-AGEs activity times higher in relation to VT: about 18 times
[2]; relative to iVT
  anti-AGEs activity times higher in relation to iVT: ~15 times
[3]; [7]
  Anodic Peak Potential Epa (mV) Epa1: 336 ± 5 ^b mV
  Anodic Peak Potential Epa (mV) Epa2: 960 ± 9 ^b mV
[3]; 0.25 mM standard solutions, acetate-acetic buffer pH 5.0 in 80% methanol, vs. Ag/AgCl, listed as hOR
  Anodic Peak Potential Epa (mV) Epa1: 336 mV
[3]
  Antioxidant Activity (mM Trolox): 3.24 ± 0.15 ^b mM Trolox
  antioxidant activity lower in relation to the antioxidant activity of Q: 15%
[4]; [8]
  IC50: 114 ± 1.23 µM
[5]
  IC50: 391 ± 22 µM
  anti-AGEs activity higher in relation to AG: 26%
[6]
  IC50: 0.581 ± 0.096 µM
  AChE inhibitory activity, times lower than that of galanthamine: 14–20 times

## O=c1cc(-c2ccc(O)cc2)oc2cc(O)c([C@@H]3O[C@H](CO)[C@@H](O)[C@H](O)[C@H]3O)c(O)c12 [Isovitexin (iVT), 4′,5,7-trihydroxyflavone-6-glucoside]
[2]
  IC50: 214 ± 11 µM
[3]; [7]
  Anodic Peak Potential Epa (mV) Epa1: 926 ± 8 ^a mV
[3]; 0.25 mM standard solutions, acetate-acetic buffer pH 5.0 in 80% methanol, vs. Ag/AgCl, listed as iVT
  Anodic Peak Potential Epa (mV) Epa1: 926 mV
[3]
  Antioxidant Activity (mM Trolox): 1.06 ± 0.07 ^c mM Trolox
[4]; [8]
  IC50: 161 ± 3.27 µM
[5]
  IC50: 341 ± 20 µM
[6]
  IC50: 1.08 ± 0.011 µM

## O=c1cc(-c2ccc(O)c(O)c2)oc2c([C@@H]3O[C@H](CO)[C@@H](O)[C@H](O)[C@H]3O)c(O)cc(O)c12 [Orientin (OR), 3′,4′,5,7-tetrahydroxyflavone-8-glucoside]
[2]
  IC50: 73 ± 5 µM
[3]; [7]
  Anodic Peak Potential Epa (mV) Epa1: 345 ± 6 ^b mV
  Anodic Peak Potential Epa (mV) Epa2: 1020 ± 9 ^a mV
[3]; 0.25 mM standard solutions, acetate-acetic buffer pH 5.0 in 80% methanol, vs. Ag/AgCl, listed as OR
  Anodic Peak Potential Epa (mV) Epa1: 345 mV
[3]
  Antioxidant Activity (mM Trolox): 3.00 ± 0.14 ^b mM Trolox
  antioxidant activity lower in relation to the antioxidant activity of Q: 21%
[4]
  IC50: 122 ± 2.66 µM
[4]; relative to hOR
  ACE inhibitory activity lower as compared to hOR: 6.9%
[5]
  IC50: 326 ± 19 µM
  anti-AGEs activity higher in relation to AG: 39%
[6]; linear regression, read-out: IC50 for AChE inhibition
  IC50: 0.868 ± 0.088 µM
[6]
  AChE inhibitory activity, times lower than that of galanthamine: 14–20 times

## O=c1c(O)c(-c2ccc(O)c(O)c2)oc2cc(O)cc(O)c12 [Quercetin (Q), 3,3′,4′,5,7-pentahydroxyflavone, reference compound]
[2]
  IC50: 243 ± 12 µM
[3]; [7]
  Anodic Peak Potential Epa (mV) Epa1: 255 ± 7 ^c mV
  Anodic Peak Potential Epa (mV) Epa2: 510 ± 8 ^c mV
  Anodic Peak Potential Epa (mV) Epa3: 1060 ± 10 mV
[3]; 0.25 mM standard solutions, acetate-acetic buffer pH 5.0 in 80% methanol, vs. Ag/AgCl, listed as Q
  Anodic Peak Potential Epa (mV) Epa1: 255 mV
[3]
  Antioxidant Activity (mM Trolox): 3.81 ± 0.19 ^a mM Trolox
[5]
  IC50: 466 ± 17 µM
  anti-AGEs activity higher in relation to AG: 12%
[6]
  IC50: 1.37 ± 0.077 µM
